Source: patent publication US20090326196A1 (priority 2006, published 2009)
Square brackets hold non-standard residues; d marks the D form. Peptide text beside a SMILES is read from it. Leu(5,5,5,5',5',5'-F6) = N[C@@H](CC(C(F)(F)F)C(F)(F)F)C(=O)O

Key:
[1] = biological target: T1, trypsin (from bovine pancreas, EC 3.4.21.4) (Bos taurus, UniProt P00760); test: in vitro; format: in vitro ADME
T1 construct: trypsin (from bovine pancreas, EC 3.4.21.4); from tissue; host or cells: bovine pancreas
T1 sequence (P00760 24-246): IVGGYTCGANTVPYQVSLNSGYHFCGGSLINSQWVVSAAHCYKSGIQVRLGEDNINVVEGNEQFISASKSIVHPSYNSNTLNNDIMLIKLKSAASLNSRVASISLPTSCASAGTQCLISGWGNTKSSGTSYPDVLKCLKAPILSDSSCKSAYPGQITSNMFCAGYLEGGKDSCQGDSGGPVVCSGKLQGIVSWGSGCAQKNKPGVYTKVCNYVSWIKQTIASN
Protocol: The proteolytic stability of peptides towards trypsin (from bovine pancreas, EC 3.4.21.4) was determined by an analytical RP-HPLC assay. […] The enzyme concentration (in 1 mM HCl) was determined by absorbance at 280 nm. […] The amount of enzyme was optimized so that kinetics of proteolytic reactions could be assayed by RP-HPLC (detection at 230 nm). The peptides were incubated with trypsin at 37° C. over a period of 3 h. Aliquots (10 μL) were taken at different reaction times, diluted with 0.2% TFA (440 μL) and stored at −80° C. […] The remaining full-length peptide concentration was normalized with respect to the initial concentration.
where A is the normalized concentration of peptides; k is the pseudo first order rate constant; t is the reaction time in mins; and [A]0 is the initial concentration of peptides. Each fragment cleaved from the full-length peptides was identified by ESI-MS so that cleavage patterns could be established and compared.

[2] = biological target: DPP IV (from porcine kidney, EC 3.4.14.5) (Sus scrofa, UniProt P22411); settings: for hydrolysis products by RP-HPLC (FIG. 38): F8: 48 h at 20 U/L and 1 h at 200 U/L, F89: 20 and 60 mins; for fragments detected after incubation with DPP IV: after 24 h incubation
DPP IV (from porcine kidney, EC 3.4.14.5) (Sus scrofa, UniProt P22411), sequence (P22411 whole entry, the tested form may be a part): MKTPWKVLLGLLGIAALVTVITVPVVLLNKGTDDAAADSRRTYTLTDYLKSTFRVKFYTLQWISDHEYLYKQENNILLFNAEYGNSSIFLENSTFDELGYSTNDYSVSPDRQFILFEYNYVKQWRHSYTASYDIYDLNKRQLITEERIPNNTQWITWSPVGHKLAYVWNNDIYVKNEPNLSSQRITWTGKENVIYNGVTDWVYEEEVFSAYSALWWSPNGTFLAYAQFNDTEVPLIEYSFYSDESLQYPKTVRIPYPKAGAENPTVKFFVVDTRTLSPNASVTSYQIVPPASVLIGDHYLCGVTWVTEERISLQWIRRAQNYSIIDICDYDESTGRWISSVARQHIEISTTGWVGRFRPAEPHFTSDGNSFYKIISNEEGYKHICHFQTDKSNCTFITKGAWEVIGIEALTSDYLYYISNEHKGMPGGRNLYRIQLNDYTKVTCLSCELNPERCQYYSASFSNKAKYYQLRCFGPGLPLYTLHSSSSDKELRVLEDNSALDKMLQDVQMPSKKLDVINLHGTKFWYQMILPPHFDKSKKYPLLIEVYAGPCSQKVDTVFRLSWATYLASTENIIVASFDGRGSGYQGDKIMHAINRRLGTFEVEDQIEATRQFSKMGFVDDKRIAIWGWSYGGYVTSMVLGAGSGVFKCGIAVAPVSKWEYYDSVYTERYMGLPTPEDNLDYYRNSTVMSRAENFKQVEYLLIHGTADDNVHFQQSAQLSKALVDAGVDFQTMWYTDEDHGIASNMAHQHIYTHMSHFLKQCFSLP
Protocol: Proteolytic Stability. […] DPP IV has a relative specific requirement for substrate residues at P2, P1, P1′ and P2′ positions regarding the scissile Ala-Glu amide bond. Especially, at P1 position, Pro and Ala are highly favored. […] The proteolytic stability of peptides towards DPP IV (from porcine kidney, EC 3.4.14.5) was determined by analytical RP-HPLC assay (detection at 230 nm). A chromogenic substrate, Gly-Pro-p-nitroanilide, was employed to calibrate specific activity by measuring absorbance at 410 nm using Δε=8800 M^−1·cm^−1 in 100 mM Tris-HCl, pH 8.0. […] Reactions were quenched with 600 μL of 0.2% TFA at time intervals and stored on dry ice until the analysis. An analytical C18 column [J. T. Baker C18, 5 μm, 4 mm×250 mm] was used for separation and quantitation of intact and digested peptides with a binary solvent system can/H2O/0.1% TFA. First order rate constants were obtained as the fitted value±one standard deviation by fitting with the equation: […]
where A is the concentration of peptides; k the first order rate constant; t the reaction time in min; and [A]0 the initial concentration of peptides. The fragments derived from the full-length peptides were manually collected and identified by ESI-MS.

[3] = system: human red blood cells (hRBC); format: cell-based
Protocol: The selectivity with which the peptides are able to lyse bacterial cells compared to mammalian cells was interrogated by a hemolysis assay against human red blood cells (hRBC). […] Our results are consistent with this trend.
Fresh human red blood cells (hRBCs) were centrifuged at 3,500 rpm and washed with PBS buffer until the supernatant was clear. The hRBCs were then resuspended and diluted to a final concentration of 1% (v/v) in PBS and stored at 4° C. […] An aliquot (50 μL) of supernatant was transferred to a new 96-well plate containing 50 μL H2O in each well. The absorbance at 415 nm was measured using a plate reader. Wells containing melittin at 100-400 μg/mL served as positive controls, and wells containing only buffer and hRBCs served as negative controls. The percentage hemolysis was calculated using the equation:
where complete hemolysis is defined as the average absorbance of all wells containing 100-400 μg/[…] melittin.

[4] = system: trypsin (from bovine pancreas, EC 3.4.21.4); test: 1 μg trypsin in 200 μL of PBS buffer (pH 7.4, 10 mM PO4^3−, 150 mM NaCl); settings: 37° C., up to 3 h
[5] = system: DPP IV (from porcine kidney, EC 3.4.14.5); test: DPP IV 20 unit/L in 50 mM Tris-HCl, 1 mM EDTA, pH 7.6; settings: 37° C., up to 48 h
[6] = system: trypsin (from bovine pancreas, EC 3.4.21.4); test: 0.5 μg trypsin in 200 μL of PBS buffer (pH 7.4, 10 mM PO4^3−, 150 mM NaCl); settings: 37° C., up to 3 h

## CC(C)C[C@H](NC(=O)CNC(=O)[C@H](C)NC(=O)[C@@H](N)CCCNC(=N)N)C(=O)N[C@@H](CCC(N)=O)C(=O)N[C@@H](Cc1ccccc1)C(=O)N1CCC[C@H]1C(=O)N[C@H](C(=O)NCC(=O)N[C@@H](CCCNC(=N)N)C(=O)N[C@H](C(=O)N[C@@H](Cc1c[nH]cn1)C(=O)N[C@@H](CCCNC(=N)N)C(=O)N[C@@H](CC(C(F)(F)F)C(F)(F)F)C(=O)N[C@@H](CC(C(F)(F)F)C(F)(F)F)C(=O)N[C@@H](CCCNC(=N)N)C(=O)N[C@@H](CCCCN)C(=O)O)C(C)C)C(C)C [BII5F2] (H-RAGLQFPVGRVHR[Leu(5,5,5,5',5',5'-F6)][Leu(5,5,5,5',5',5'-F6)]RK-OH)
[1]
  fold more resistant to hydrolysis by trypsin: ~3 fold

## CC[C@H](C)[C@H](NC(=O)[C@H](Cc1ccccc1)NC(=O)[C@H](CCC(=O)O)NC(=O)[C@H](CCCCN)NC(=O)[C@H](C)NC(=O)[C@H](C)NC(=O)[C@H](CCC(N)=O)NC(=O)CNC(=O)[C@H](CCC(=O)O)NC(=O)[C@H](CC(C)C)NC(=O)[C@H](Cc1ccc(O)cc1)NC(=O)[C@H](CO)NC(=O)[C@H](CO)NC(=O)[C@@H](NC(=O)[C@H](CC(=O)O)NC(=O)[C@H](CO)NC(=O)[C@@H](NC(=O)[C@H](Cc1ccccc1)NC(=O)[C@@H](NC(=O)CNC(=O)[C@H](CCC(=O)O)NC(=O)[C@H](CC(C(F)(F)F)C(F)(F)F)NC(=O)[C@@H](N)Cc1cnc[nH]1)[C@@H](C)O)[C@@H](C)O)C(C)C)C(=O)N[C@@H](C)C(=O)N[C@@H](Cc1c[nH]c2ccccc12)C(=O)N[C@@H](CC(C)C)C(=O)N[C@H](C(=O)N[C@@H](CCCCN)C(=O)NCC(=O)N[C@@H](CCCNC(=N)N)C(N)=O)C(C)C [Peptide F8]
[2]
  hydrolysis products by RP-HPLC (FIG. 38): No detectable hydrolysis products
  fragments detected after incubation with DPP IV: no fragments were detected

## CC[C@H](C)[C@H](NC(=O)[C@H](Cc1ccccc1)NC(=O)[C@H](CCC(=O)O)NC(=O)[C@H](CCCCN)NC(=O)[C@H](C)NC(=O)[C@H](C)NC(=O)[C@H](CCC(N)=O)NC(=O)CNC(=O)[C@H](CCC(=O)O)NC(=O)[C@H](CC(C)C)NC(=O)[C@H](Cc1ccc(O)cc1)NC(=O)[C@H](CO)NC(=O)[C@H](CO)NC(=O)[C@@H](NC(=O)[C@H](CC(=O)O)NC(=O)[C@H](CO)NC(=O)[C@@H](NC(=O)[C@H](Cc1ccccc1)NC(=O)[C@@H](NC(=O)CNC(=O)[C@H](CC(C(F)(F)F)C(F)(F)F)NC(=O)[C@H](C)NC(=O)[C@@H](N)Cc1c[nH]cn1)[C@@H](C)O)[C@@H](C)O)C(C)C)C(=O)N[C@@H](C)C(=O)N[C@@H](Cc1c[nH]c2ccccc12)C(=O)N[C@@H](CC(C)C)C(=O)N[C@H](C(=O)N[C@@H](CCCCN)C(=O)NCC(=O)N[C@@H](CCCNC(=N)N)C(N)=O)C(C)C [Peptide F9]
[2]; hexafluoroleucine at P1′ and P2′ positions
  resistance to DPP IV, in words: moderate enhanced resistance

## CC[C@H](C)[C@H](NC(=O)[C@H](Cc1ccccc1)NC(=O)[C@H](CCC(=O)O)NC(=O)[C@H](CCCCN)NC(=O)[C@H](C)NC(=O)[C@H](C)NC(=O)[C@H](CCC(N)=O)NC(=O)CNC(=O)[C@H](CCC(=O)O)NC(=O)[C@H](CC(C)C)NC(=O)[C@H](Cc1ccc(O)cc1)NC(=O)[C@H](CO)NC(=O)[C@H](CO)NC(=O)[C@@H](NC(=O)[C@H](CC(=O)O)NC(=O)[C@H](CO)NC(=O)[C@@H](NC(=O)[C@H](Cc1ccccc1)NC(=O)[C@@H](NC(=O)CNC(=O)[C@H](CC(C(F)(F)F)C(F)(F)F)NC(=O)[C@H](CC(C(F)(F)F)C(F)(F)F)NC(=O)[C@@H](N)Cc1cnc[nH]1)[C@@H](C)O)[C@@H](C)O)C(C)C)C(=O)N[C@@H](C)C(=O)N[C@@H](Cc1c[nH]c2ccccc12)C(=O)N[C@@H](CC(C)C)C(=O)N[C@H](C(=O)N[C@@H](CCCCN)C(=O)NCC(=O)N[C@@H](CCCNC(=N)N)C(N)=O)C(C)C [Peptide F89]
[2]
  hydrolysis products by RP-HPLC (FIG. 38): No detectable hydrolysis products
  fragments detected after incubation with DPP IV: no fragments were detected

## CC[C@H](C)[C@H](NC(=O)CN)C(=O)NCC(=O)N[C@@H](CCCCN)C(=O)N[C@@H](Cc1ccccc1)C(=O)N[C@@H](CC(C(F)(F)F)C(F)(F)F)C(=O)N[C@@H](Cc1cnc[nH]1)C(=O)N[C@@H](C)C(=O)N[C@@H](C)C(=O)N[C@@H](CCCCN)C(=O)N[C@@H](CCCCN)C(=O)N[C@@H](Cc1ccccc1)C(=O)N[C@@H](C)C(=O)N[C@@H](CCCCN)C(=O)N[C@@H](C)C(=O)N[C@@H](Cc1ccccc1)C(=O)N[C@H](C(=O)N[C@@H](C)C(=O)N[C@@H](CCC(=O)O)C(=O)N[C@@H](CC(C(F)(F)F)C(F)(F)F)C(=O)N[C@@H](CCSC)C(=O)N[C@@H](CC(N)=O)C(=O)N[C@@H](CO)C(N)=O)C(C)C [Peptide M2F2] (H-GIGKF[Leu(5,5,5,5',5',5'-F6)]HAAKKFAKAFVAE[Leu(5,5,5,5',5',5'-F6)]MNS-NH2)
[3]
  hemolytic activity relative to parent peptide, in words: slightly more hemolytic
[1]
  more stable to proteolysis by a factor, relative to M2: ~1.2

## GIGKFLHAAKKFAKAFVAEIMNS
[4]
  fragment found: M2 (1-14), first_seen

## GIGKFXHAAKKFAKAFVAEXMNS
[4]
  fragment found: M2F2 (1-14), first_seen

## HAXGTFTSDVSSYLEGQAAKEFIAWLVKGR
[5]
  fragment found: corresponding peptide fragment GLP-1 (9-36) amide, major

## HXEGTFTSDVSSYLEGQAAKEFIAWLVKGR
[5]
  not cleaved: no fragments were detected after 24 h incubation

## HXXGTFTSDVSSYLEGQAAKEFIAWLVKGR
[5]
  not cleaved: no fragments were detected after 24 h incubation

## TRSSRAGLQFPVGRVHRXXRK
[6]
  cleaved bond: initial P1 site of cleavage BII1F2 (R14), first_seen
  fragment found: BII1F2 (6-21), first_seen

## buforin II[1-21] [BII1, reference compound]
[1]
  initial P1 site of cleavage: R17

## magainin 2 [Peptide M2, reference compound]
[1]
  time to complete hydrolysis: 33 min
